This passage reports EC50 results from US7084141B2, “Inhibitors of macrophase migration inhibitory factor and methods for identifying the same” (Avanir Pharmaceuticals, priority 2001, dated 2006).

This assay deals with T1, MIF produced by THP-1 cells (Homo sapiens, UniProt P14174).
T1 construct: a test cell may express the MIF naturally (e.g., THP-1 cells); endogenous in cells; host or cells: THP-1 cells stimulated with LPS
T1 sequence (P14174 2-115 limits assumed): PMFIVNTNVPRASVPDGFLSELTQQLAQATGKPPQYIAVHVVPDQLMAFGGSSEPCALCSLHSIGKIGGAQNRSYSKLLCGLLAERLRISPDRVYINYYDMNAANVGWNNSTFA
Description: ELISA of immunoreactive MIF from LPS stimulated THP-1 cells treated with compound. Format: cell-based. As to conditions: LPS stimulated THP-1 cells, incubated overnight; read-out: ED50, inhibition of the ability of the antibody to recognize MIF (ELISA). As to the method: Alternatively, ELISA may be preferred to detect and quantify the amount of MIF in cell supernatants. ELISA is preferred for detection in high throughput screening. Briefly, 96-well plates are coated with an anti-MIF antibody or anti-tag antibody, washed, and blocked with 2% BSA. Cell supernatant is then added to the wells. Following incubation and washing, a second antibody (e.g., to MIF) is added. The second antibody may be coupled to a label or detecting reagent, such as an enzyme or to biotin. Following further incubation, a developing reagent is added and the amount of MIF determined using an ELISA plate reader. The developing reagent is a substrate for the enzyme coupled to the second antibody (typically an anti-isotype antibody) or for the enzyme coupled to streptavidin. Suitable enzymes are well known in the art and include horseradish peroxidase, which acts upon a substrate (e.g., ABTS) resulting in a colorimetric reaction. It is recognized that rather than using a second antibody coupled to an enzyme, the anti-MIF antibody may be directly coupled to the horseradish peroxidase, or other equivalent detection reagent. If desired, cell supernatants may be concentrated to raise the detection level. Further, detection methods, such as ELISA and the like may be employed to monitor intracellular as well as extracellular levels of MIF. When intracellular levels are desired, a cell lysate is preferred. When extracellular levels are desired, media can be screened.
In another experiment (FIG. 2), varying concentrations of five different inhibitor analogs were added to LPS stimulated THP-1 cells and allowed to incubate overnight. The following day the amount of immunoreactive MIF detected was evaluated by ELISA. Compound 7e inhibited the ability of the antibody to recognize MIF in a dose dependent fashion with an ED50 of 2 μM, similar to the response obtained with analogs compound 7b and compound 7d.
In a further experiment (FIG. 3), the ability of compound 7e to decrease the immunoreactivity of MIF produced by THP-1 cells was determined. THP-1 cells were treated with 10 μg/ml of LPS and 10 μM of compound 7e was added at various times post-LPS stimulation and immunoreactivity monitored with an anti-MIF monoclonal. […] Thus, this experiment measures the activity of compounds or buffer alone controls on MIF detection when the compounds are initially added at various times to cell cultures and then the corresponding conditioned media samples are processed in a time dependent fashion thereafter.

`Cn1c(=O)c([N+](=O)[O-])c(N2CCN(C(=O)c3ccccc3)CC2)c2ccccc21` [compound 7b]: the EC50 is about 2000 nM.

Take `CCOC(=O)c1c(N2CCN(C(=O)c3ccccc3)CC2)c2ccccc2n(C)c1=O` [compound 7d]: the EC50 was about 2000 nM.
